This assay deals with ω-conotoxin GVIA binding site on brain membrane preparations. Further details: species or system frogs, chicks and rats.

The text below walks through data of patent publication US5990295A (priority 1998, dated 1999).

On to ω-conotoxin GVIA, for which the “displacement of 125I-GVIA” value was “approximately 90%” and the “displacement of 125I-GVIA label” value is on record as “approximately 98%”.
